Data as given in publication PMC5934486, “Pheromone Binding Protein EhipPBP1 Is Highly Enriched in the Male Antennae of the Seabuckthorn Carpenterworm and Is Binding to Sex Pheromone Components” (Frontiers in Physiology, 2018).

Experiments:
recombinant EhipPBP1 [1] = molecular target: T1, recombinant EhipPBP1 (Eogystia hippophaecolus, UniProt A0A1B3P5J8); test: Binding of the fluorescent probe 1-NPN to EhipPBP1 (Scatchard analysis); settings: Scatchard method; 2 μM EhipPBP1, 1-NPN 2–20 μM, pH 7.4; read-out: dissociation constant (K1-NPN)
T1 sequence (A0A1B3P5J8 entry or part of it): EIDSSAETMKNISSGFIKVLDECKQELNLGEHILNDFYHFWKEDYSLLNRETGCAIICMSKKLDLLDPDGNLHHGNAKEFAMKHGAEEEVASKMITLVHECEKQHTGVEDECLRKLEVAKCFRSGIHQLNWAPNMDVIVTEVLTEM
Protocol: N-phenyl-1-naphthylamine (1-NPN) was selected for use as a selectively fluorescent probe to measure the affinity of ligand binding to recombinant EhipPBP1 ([Yin et al., 2012]; [Zhong et al., 2012]). Seven pheromone and analog compounds were a gift from Professor Zhang Jintong of Shanxi Agricultural University (Table 1) and were >97% pure. A fluorescence binding assay was performed on a multiscan Spectrum Molecular Device SpectraMax i3 (Thermo Scientific, Wilmington, DE, United States) with an excitation wavelength of 337 nm and recording of emission spectra between 380 and 520 nm. Parameter selection was such that the slit widths for both excitation and emission were 10 nm. Spectra were recorded using high-speed scanning. 2 μM solution of EhipPBP1 was prepared in 20 mM Tris-HCl buffer (pH 7.4), and the ligands were dissolved in chromatographically pure methanol as 1 mM stock solutions. The affinity of EhipPBP1 for the labeled probe was determined by adding aliquots of 1-NPN stock solution to give final concentrations of 2–20 μM. […] To determine dissociation constants, intensity values corresponding to maximum fluorescence emission were plotted against free ligand concentrations. Assuming that the protein was 100% active and that the stoichiometric ratio between protein and ligand was 1:1 at saturation, the bound ligand was determined from the fluorescence intensity values. […]

recombinant EhipPBP1 [2] = molecular target: T1, recombinant EhipPBP1; test: Fluorescence competitive binding assay with 1-NPN as probe; settings: for inhibition: 1-NPN and EhipPBP1 both at 2 μM, read-out: Highest combined rate (%); for inhibition / IC50: pH 7.4; for IC50: concentration of competitor causing 50% reduction of 1-NPN fluorescence, 1-NPN and EhipPBP1 at 2 μM
Protocol: N-phenyl-1-naphthylamine (1-NPN) was selected for use as a selectively fluorescent probe to measure the affinity of ligand binding to recombinant EhipPBP1 ([Yin et al., 2012]; [Zhong et al., 2012]). Seven pheromone and analog compounds were a gift from Professor Zhang Jintong of Shanxi Agricultural University (Table 1) and were >97% pure. A fluorescence binding assay was performed on a multiscan Spectrum Molecular Device SpectraMax i3 (Thermo Scientific, Wilmington, DE, United States) with an excitation wavelength of 337 nm and recording of emission spectra between 380 and 520 nm. Parameter selection was such that the slit widths for both excitation and emission were 10 nm. Spectra were recorded using high-speed scanning. 2 μM solution of EhipPBP1 was prepared in 20 mM Tris-HCl buffer (pH 7.4), and the ligands were dissolved in chromatographically pure methanol as 1 mM stock solutions. The affinity of EhipPBP1 for the labeled probe was determined by adding aliquots of 1-NPN stock solution to give final concentrations of 2–20 μM. […] To determine dissociation constants, intensity values corresponding to maximum fluorescence emission were plotted against free ligand concentrations. Assuming that the protein was 100% active and that the stoichiometric ratio between protein and ligand was 1:1 at saturation, the bound ligand was determined from the fluorescence intensity values. EhipPBP1 binding with every component was replicated six times. The curves were then linearized using Scatchard plots to calculate K1-NPN values. Dissociation constants of the competitors (Ki) were calculated from the corresponding IC50 values by the following equation: Ki = [IC50]/(1 + [1–NPN]/K1-NPN), where [IC50] was the concentration of a competitor that caused a 50% reduction in the fluorescence intensity, [1–NPN] represented the free concentration of 1–NPN, and K1-NPN represented the dissociation constant of the complex of protein with 1–NPN ([Campanacci et al., 2001]).

[3] = calculated Kd values in competitive binding assays with 1-NPN
[4] = calculated from IC50 by Ki = [IC50]/(1 + [1-NPN]/K1-NPN), Table 1

Structure (SMILES) | Kd (recombinant EhipPBP1 [1]) [nM] | inhibition (recombinant EhipPBP1 [2]; competitor 2–20 μM) [%] | Kd (recombinant EhipPBP1 [2]; [3]) [nM] | Kd (recombinant EhipPBP1 [2]; [4]) [nM] | IC50 (recombinant EhipPBP1 [2]) [nM] | binding to EhipPBP1 (result in words) (recombinant EhipPBP1 [2]; competitor 2–20 μM) | binding in the range of test concentrations (recombinant EhipPBP1 [2]; competitor 2–20 μM, Kd could not be calculated) [%]
c1ccc(Nc2cccc3ccccc23)cc1 [1-NPN, N-phenyl-1-naphthylamine] | 3700 ± 60 |  |  |  |  |  | 
CCCCCCCCCC/C=C/CCOC(C)=O [E3-14:Ac, (E)-3-tetradecenyl acetate] |  | 89.4 | 1580 ± 210 | 1570 ± 210 | 2000 |  | 
CCCC/C=C/CCCCCCCCOC(C)=O [E9-14:Ac] |  | 53.1 | 6300 ± 520 | 6300 ± 521 | 8000 |  | 
CCCCCCCCCC/C=C\CCOC(C)=O [Z3-14:Ac] |  |  |  |  |  | No binding was detected | 
CCCCCCCCCCC=CCCO [Z3-14:OH] |  | 56.5 | 2360 ± 200 | 2360 ± 201 | 3000 |  | 
CCCCCC/C=C\CCCCCCOC(C)=O [Z7-14:Ac, (Z)-7-tetradecenyl acetate] |  | 86.4 | 1180 ± 10 | 1180 ± 12 | 1500 |  | 
CCCCCCC=CCCCCCCO [Z7-14:OH] |  | 62.3 |  | 3150 ± 321 | 4000 |  | 
CCCCC=CCCCCCCCCOC(C)=O [Z9-14:Ac] |  | 37.9 |  |  |  |  | < 50
